Experimental data: ChEMBL document CHEMBL1152143, “Potent benzimidazolone-based CGRP receptor antagonists” (Bioorg Med Chem Lett, 2008)

What was measured:
Conditions in all cases: Macaca mulatta
[1] = tested on: Rhesus monkey; experiment: Inhibition of CGRP-induced vasodilation in rhesus monkey at plasma concentration of 2 uM; assay type: functional
[2] = tested on: Rhesus monkey; experiment: Inhibition of CGRP-induced vasodilation in rhesus monkey
[3] = tested on: Rhesus monkey; experiment: Inhibition of CGRP-induced vasodilation in rhesus monkey at plasma concentration of 10 uM; assay type: functional

SMILES | inhibition at 2 µM [1] | EC50 [2] | inhibition at 10 µM [3]
Cc1cc(C)c2c(c1)n(CC(=O)Nc1ccc3c(c1)C[C@]1(C3)C(=O)NC(=O)N1C)c(=O)n2CC(=O)N(C)C | 100% | 0.3 µM | –
Cc1cc(C)c2c(c1)n(CC(=O)Nc1ccc3c(c1)C[C@]1(C3)C(=O)NC(=O)N1C)c(=O)n2C | – | 10 µM | 50%
